# Measurements published in US5880152A, “Butyrate prodrugs derived from lactic acid” (Vertex Pharmaceuticals, Inc., priority 1997, dated 1999).
# Like-named read-outs stand apart in the source and are kept apart here.
# Assays:
# [1] = test system: Fetal hemoglobin cells (F cells); assay: Efficacy study in anemic rhesus monkeys: % F cells; type: in vivo, rhesus monkey (anemic)
# Method: Each group was studied in two phases, as shown below.
# Phase I of the efficacy study.
# I 2 Hydroxyurea 50 mg/kg/day
# Phase II of the efficacy study.
# Hemoglobin F = assay: Efficacy study in anemic rhesus monkeys: % Hb F (HPLC); type: in vivo, rhesus monkey (anemic)
# Method: (§1) Fetal hemoglobin cells (F cells), Hemoglobin F level in total Hemoglobin (% Hb F) and % γ globin chain levels were monitored before and after each of the two phases. % F cells were measured according to the protocol described in Betke et al, Blut., 4, pp. 241-9 (1958). % Hb F and % γ globin chain synthesis were measured using High Performance Liquid Chromatography (HPLC) according to the protocol described in Huisman, J. Chromagtogr., 418, pp. 277 (1987)
# γ globin chain = assay: Efficacy study in anemic rhesus monkeys: % γ globin chain (HPLC); type: in vivo, rhesus monkey (anemic)
# Method: as §1
# [2] = Triglycerides and ALT in the efficacy study; conditions: three groups, prior to or during the two phases
# fetal hemoglobin = conditions: sickle cell anemia patients; cited from earlier work
# [3] = rhesus monkey, in vivo
# [4] = in vivo; cited from earlier work
# [5] = test system: colorectal carcinoma cell lines; conditions: cited from earlier work
# pancreatic cancel cells = conditions: pancreatic cancer cells; cited from earlier work
# [6] = test system: retinoblastoma cell lines; conditions: cited from earlier work
# [7] = test system: urokinase plasminogen activator and its receptor mRNA; conditions: colon cancer cell lines; cited from earlier work
# tumor, leukemia = conditions: mice; cited from earlier work
# [8] = test system: Cultured Erythroleukemic Cells; conditions: in vitro; cited from earlier work
# leukemia = conditions: cited from earlier work
compound,measurement,setting,value
CCCC(=O)O[C@@H](C)C(=O)OCC [Compound IIIc],change in % F cells,[1]; Groups II and III,small but significant increase
same,change in HbF,Hemoglobin F; Groups II and III,no measurable change
same,change in γ-globin chain levels,γ globin chain; Groups II and III,no measurable change
same,levels of ALT,[2],no detectable difference
same,levels of the triglycerides,[2],no detectable difference
"NC(=O)NO [Hydroxyurea, hydroxyurea]",fetal hemoglobin production,fetal hemoglobin,stimulates fetal hemoglobin production
same,sickling crisis,fetal hemoglobin,reduces sickling crisis
same,levels of ALT,[3],no detectable difference
same,levels of the triglycerides,[3],no detectable difference
same,% F cell count,"[1]; animal 1, group I, end of Phase I (hydroxyurea 50 mg/kg/day, 5 weeks), before Phase I 8-10",25%
same,toxicity,[4],potentially limited by myelotoxicity and the risk of carcinogenesis
same,change in % Hb F,Hemoglobin F; Group I,measurable increase
same,change in % γ-globin chain levels,γ globin chain; Group I,measurable increase
CCCC(=O)[O-].[Na+] [Sodium butyrate],apoptosis,[5],induce apoptosis
same,antigen expression,pancreatic cancel cells,modify antigen expression
same,apoptosis,[6],induce apoptosis
same,urokinase plasminogen activator and its receptor mRNA expression,[7],inhibit
CCCC(=O)O [arginine butyrate],anti-tumor and anti-leukemia effects,"tumor, leukemia",exert anti-tumor and anti-leukemia effects in mice
CCCC(=O)O [butyric acid],cell differentiation,[8],induces cell differentiation
same,"effect in leukemia patients, by inducing cell differentiation",leukemia,promising effects
